From ChEMBL document CHEMBL1146207, “Gypsophin: a novel alpha-glucosidase inhibitory cyclic peptide from the roots of Gypsophila oldhamiana” (Bioorg Med Chem Lett, 2007) come the findings set out here.

The assay deals with Sucrase-isomaltase, intestinal (Homo sapiens, UniProt P14410). Nature of the assay: Inhibition of alpha-glucosidase by enzyme inhibition assay.

The structures appear in SMILES notation.

Usually IC50 stands for the concentration at which inhibition is half-maximal.

Sequence of Sucrase-isomaltase, intestinal (P14410 2-1007 limits assumed): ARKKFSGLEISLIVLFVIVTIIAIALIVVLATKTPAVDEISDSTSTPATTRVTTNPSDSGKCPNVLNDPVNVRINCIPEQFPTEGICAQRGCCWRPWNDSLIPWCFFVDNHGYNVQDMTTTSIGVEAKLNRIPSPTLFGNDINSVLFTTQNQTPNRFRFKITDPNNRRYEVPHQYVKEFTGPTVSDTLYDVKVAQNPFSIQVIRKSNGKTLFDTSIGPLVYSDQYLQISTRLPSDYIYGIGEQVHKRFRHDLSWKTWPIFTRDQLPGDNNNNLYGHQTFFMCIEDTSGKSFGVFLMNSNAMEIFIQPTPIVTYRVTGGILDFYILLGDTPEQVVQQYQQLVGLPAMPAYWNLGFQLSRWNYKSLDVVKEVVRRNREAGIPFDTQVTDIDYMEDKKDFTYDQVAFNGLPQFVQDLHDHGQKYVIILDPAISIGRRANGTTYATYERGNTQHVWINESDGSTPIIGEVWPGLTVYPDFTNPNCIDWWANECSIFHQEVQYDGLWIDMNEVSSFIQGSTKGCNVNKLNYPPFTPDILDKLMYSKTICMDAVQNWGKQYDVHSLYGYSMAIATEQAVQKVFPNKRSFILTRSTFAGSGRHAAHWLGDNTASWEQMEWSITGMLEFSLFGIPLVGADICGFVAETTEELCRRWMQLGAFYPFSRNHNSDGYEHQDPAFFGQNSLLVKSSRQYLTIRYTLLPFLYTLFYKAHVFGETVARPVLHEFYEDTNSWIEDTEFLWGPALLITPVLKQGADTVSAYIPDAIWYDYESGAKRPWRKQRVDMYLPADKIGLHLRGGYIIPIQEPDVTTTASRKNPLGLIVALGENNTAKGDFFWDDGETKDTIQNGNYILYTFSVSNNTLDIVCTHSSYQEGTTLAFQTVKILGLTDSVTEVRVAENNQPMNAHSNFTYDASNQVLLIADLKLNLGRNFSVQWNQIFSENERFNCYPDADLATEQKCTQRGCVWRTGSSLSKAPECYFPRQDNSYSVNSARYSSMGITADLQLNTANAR
Sequence of Sucrase-isomaltase, intestinal (P14410 1008-1827 limits assumed): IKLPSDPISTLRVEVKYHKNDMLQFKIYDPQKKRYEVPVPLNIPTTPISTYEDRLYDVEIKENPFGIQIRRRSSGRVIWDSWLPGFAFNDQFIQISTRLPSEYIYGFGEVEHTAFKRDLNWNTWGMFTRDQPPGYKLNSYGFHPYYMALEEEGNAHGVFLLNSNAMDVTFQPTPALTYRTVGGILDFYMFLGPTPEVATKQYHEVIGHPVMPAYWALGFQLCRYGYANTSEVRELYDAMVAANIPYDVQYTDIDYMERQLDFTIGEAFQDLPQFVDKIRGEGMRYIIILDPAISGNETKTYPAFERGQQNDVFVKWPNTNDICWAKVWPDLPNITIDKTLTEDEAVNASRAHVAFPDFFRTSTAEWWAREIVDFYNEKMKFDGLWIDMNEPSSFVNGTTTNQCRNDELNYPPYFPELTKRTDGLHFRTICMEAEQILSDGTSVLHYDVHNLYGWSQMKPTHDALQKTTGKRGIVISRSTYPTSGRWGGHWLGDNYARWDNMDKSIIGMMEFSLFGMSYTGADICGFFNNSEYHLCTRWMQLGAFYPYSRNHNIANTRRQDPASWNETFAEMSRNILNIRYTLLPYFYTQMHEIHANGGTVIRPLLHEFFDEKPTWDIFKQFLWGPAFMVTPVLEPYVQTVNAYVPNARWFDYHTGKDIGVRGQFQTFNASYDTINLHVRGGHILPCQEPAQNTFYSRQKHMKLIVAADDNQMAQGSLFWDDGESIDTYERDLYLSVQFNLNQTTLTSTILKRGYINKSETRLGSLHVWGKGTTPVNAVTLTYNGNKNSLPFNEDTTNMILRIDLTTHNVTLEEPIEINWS

On to `CC[C@H](C)[C@@H]1NC(=O)[C@H](Cc2ccccc2)N2C(=O)C[C@H](NC(=O)[C@H](Cc3ccccc3)NC(=O)CNC(=O)[C@@H]3CCCN3C(=O)[C@H](CC(C)C)NC1=O)C2=O` [GYPSOPHIN], for which the IC50 amounted to 305 µM.
